Measurements: patent US8609672B2, “Piperazinylpyrimidine analogues as protein kinase inhibitors” (University of the Pacific, priority 2010, dated 2013)

How the values were obtained:
HT29 = test: NCI-60 SRB growth inhibition: HT29; format: cell-based, human; conditions: HT29, Colon cancer, 48 hours treatment; for CC50: Homo sapiens, HT-29, read-out: LC50 (the source's name)
NCI-60 cell line panel = test: NCI-60 SRB growth inhibition: mean over the panel; format: cell-based, human; conditions: mean over NCI-60 cell lines, 48 hours treatment
HS 578T = test: NCI-60 SRB growth inhibition: HS 578T; format: cell-based, human; conditions: Breast cancer, 48 hours treatment; for CC50: Homo sapiens, read-out: LC50 (the source's name)
HOP-62 = test: NCI-60 SRB growth inhibition: HOP-62; format: cell-based, human; conditions: HOP-62, Non-small cell lung cancer; 48 hours treatment
OVCAR-4 = test: NCI-60 SRB growth inhibition: OVCAR-4; format: cell-based, human; conditions: OVCAR-4, Ovarian cancer, 48 hours treatment; for CC50: Homo sapiens, read-out: LC50 (the source's name)
EKVX = test: NCI-60 SRB growth inhibition: EKVX; format: cell-based, human; conditions: Non-small cell lung cancer, 48 hours treatment; for CC50: Homo sapiens, read-out: LC50 (the source's name)
HCT-15 = test: NCI-60 SRB growth inhibition: HCT-15; format: cell-based, human; conditions: HCT-15, Colon cancer; 48 hours treatment
NCI-H522 = test: NCI-60 SRB growth inhibition: NCI-H522; format: cell-based, human; conditions: NCI-H522, Non-small cell lung cancer; 48 hours treatment
IGROVI = test: NCI-60 SRB growth inhibition: IGROVI; format: cell-based, human; conditions: Ovarian cancer, 48 hours treatment; for CC50: Homo sapiens, read-out: LC50 (the source's name)
SW-620 = test: NCI-60 SRB growth inhibition: SW-620; format: cell-based, human; conditions: SW-620, Colon cancer, 48 hours treatment; for CC50: Homo sapiens, read-out: LC50 (the source's name)
NCI-H322M = test: NCI-60 SRB growth inhibition: NCI-H322M; format: cell-based, human; conditions: Non-small cell lung cancer, 48 hours treatment
SF-539 = test: NCI-60 SRB growth inhibition: SF-539; format: cell-based, human; conditions: SF-539, CNS cancer; 48 hours treatment
SF-295 = test: NCI-60 SRB growth inhibition: SF-295; format: cell-based, human; conditions: for CC50: Homo sapiens, SF-295, 48 h, read-out: LC50 (the source's name); for TGI: SF-295, CNS cancer, 48 hours treatment
SK-MEL-5 = test: NCI-60 SRB growth inhibition: SK-MEL-5; format: cell-based, human; conditions: SK-MEL-5, Melanoma; 48 hours treatment
SNB-19 = test: NCI-60 SRB growth inhibition: SNB-19; format: cell-based, human; conditions: SNB-19, CNS cancer, 48 hours treatment; for CC50: Homo sapiens, read-out: LC50 (the source's name)
A498 = test: NCI-60 SRB growth inhibition: A498; format: cell-based, human; conditions: A498, Renal cancer, 48 hours treatment; for CC50: Homo sapiens, read-out: LC50 (the source's name)
M14 = test: NCI-60 SRB growth inhibition: M14; format: cell-based, human; conditions: M14, Melanoma, 48 hours treatment; for CC50: Homo sapiens, read-out: LC50 (the source's name)
OVCAR-3 = test: NCI-60 SRB growth inhibition: OVCAR-3; format: cell-based, human; conditions: OVCAR-3, Ovarian cancer; 48 hours treatment
K-562 = test: NCI-60 SRB growth inhibition: K-562; format: cell-based, human; conditions: K-562, Leukemia, 48 hours treatment; for CC50: Homo sapiens, K562, read-out: LC50 (the source's name)
RPMI-8226 = test: NCI-60 SRB growth inhibition: RPMI-8226; format: cell-based, human; conditions: RPMI-8226, Leukemia, 48 hours treatment; for CC50: Homo sapiens, read-out: LC50 (the source's name)
KM12 = test: NCI-60 SRB growth inhibition: KM12; format: cell-based, human; conditions: KM12, Colon cancer, 48 hours treatment; for CC50: Homo sapiens, read-out: LC50 (the source's name)
ABL kinase = target: T1, ABL kinase (Homo sapiens, UniProt P00519); test: Functional kinase inhibition assay: ABL; format: biochemical; conditions: 1 μM compound
T1 construct: purchased Millipore Corp. (Dundee, UK; assay service)
T1 sequence (P00519 whole entry): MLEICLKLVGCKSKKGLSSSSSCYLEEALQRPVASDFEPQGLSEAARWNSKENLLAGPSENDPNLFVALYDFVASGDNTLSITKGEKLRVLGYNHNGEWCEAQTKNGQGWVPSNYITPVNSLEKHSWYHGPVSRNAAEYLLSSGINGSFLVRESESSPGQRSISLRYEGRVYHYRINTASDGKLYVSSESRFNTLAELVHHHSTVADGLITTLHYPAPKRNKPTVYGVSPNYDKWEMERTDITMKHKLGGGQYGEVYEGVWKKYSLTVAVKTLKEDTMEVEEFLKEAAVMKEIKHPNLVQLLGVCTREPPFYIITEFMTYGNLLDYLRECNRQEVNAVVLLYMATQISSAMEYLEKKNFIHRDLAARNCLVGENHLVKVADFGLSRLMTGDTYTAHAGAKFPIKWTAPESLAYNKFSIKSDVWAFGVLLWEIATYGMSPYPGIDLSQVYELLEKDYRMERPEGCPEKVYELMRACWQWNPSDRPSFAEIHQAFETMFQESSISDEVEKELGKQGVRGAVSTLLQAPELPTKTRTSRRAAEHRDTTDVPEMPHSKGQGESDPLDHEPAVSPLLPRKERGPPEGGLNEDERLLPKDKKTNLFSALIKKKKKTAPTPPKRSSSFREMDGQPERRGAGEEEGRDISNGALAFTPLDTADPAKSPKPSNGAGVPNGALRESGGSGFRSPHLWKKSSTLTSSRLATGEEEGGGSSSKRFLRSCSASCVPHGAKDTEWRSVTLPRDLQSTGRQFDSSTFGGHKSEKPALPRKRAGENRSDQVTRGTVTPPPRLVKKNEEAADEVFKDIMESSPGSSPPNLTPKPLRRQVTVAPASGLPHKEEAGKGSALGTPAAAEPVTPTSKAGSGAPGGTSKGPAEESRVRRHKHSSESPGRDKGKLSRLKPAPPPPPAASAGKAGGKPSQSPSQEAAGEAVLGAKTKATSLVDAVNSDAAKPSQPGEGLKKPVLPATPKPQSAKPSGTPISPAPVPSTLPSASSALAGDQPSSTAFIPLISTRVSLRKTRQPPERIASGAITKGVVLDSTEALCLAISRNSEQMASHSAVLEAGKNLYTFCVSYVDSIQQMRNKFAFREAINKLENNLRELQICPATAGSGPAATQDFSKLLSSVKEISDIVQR
Method: [formula] The assay was performed in duplicates.
The results of kinase function inhibition assay are shown in Table 6, including the F-POC of 1 μM of compounds 4, 15, and 16 against the most sensitive kinases tested within this experiment. […] Kinases within the same subfamily are highlighted.

HCC-2998 = test: NCI-60 SRB growth inhibition: HCC-2998; format: cell-based, human; conditions: HCC-2998, Colon cancer; 48 hours treatment
UACC-62 = test: NCI-60 SRB growth inhibition: UACC-62; format: cell-based, human; conditions: UACC-62, Melanoma; 48 hours treatment
HL-6O(TB) = test: NCI-60 SRB growth inhibition: HL-6O(TB); format: cell-based, human; conditions: Leukemia, 48 hours treatment
MDA-MB-435 = test: NCI-60 SRB growth inhibition: MDA-MB-435; format: cell-based, human; conditions: MDA-MB-435, Melanoma, 48 hours treatment; for CC50: Homo sapiens, read-out: LC50 (the source's name)
MCF7 = test: NCI-60 SRB growth inhibition: MCF7; format: cell-based, human; conditions: MCF7, Breast cancer; 48 hours treatment
MDA-MB-231/ATCC = test: NCI-60 SRB growth inhibition: MDA-MB-231/ATCC; format: cell-based, human; conditions: Breast cancer, 48 hours treatment
SF-268 = test: NCI-60 SRB growth inhibition: SF-268; format: cell-based, human; conditions: SF-268, CNS cancer; 48 hours treatment
OVCAR-5 = test: NCI-60 SRB growth inhibition: OVCAR-5; format: cell-based, human; conditions: OVCAR-5, Ovarian cancer, 48 hours treatment; for CC50: Homo sapiens, read-out: LC50 (the source's name)
HCT-116 = test: NCI-60 SRB growth inhibition: HCT-116; format: cell-based; conditions: HCT-116, Colon cancer; 48 hours treatment
TK-10 = test: NCI-60 SRB growth inhibition: TK-10; format: cell-based, human; conditions: TK-10, Renal cancer, 48 hours treatment; for CC50: Homo sapiens, read-out: LC50 (the source's name)

c1ccc(Cc2cnc(N3CCN(c4ncnc5ccccc45)CC3)nc2)cc1 [Compound 4, 4-(4-(5-benzylpyrimidin-2-yl)piperazin-1-yl)quinazoline]
TGI (HT29): 35.10 µM | CC50 (HT29): 79.2 µM | GI50 (NCI-60 cell line panel; Homo sapiens): 5.24 µM | CC50 (NCI-60 cell line panel; Homo sapiens, read-out: Mean LC50): 81.3 µM | Mean TGI (NCI-60 cell line panel): 37.15 µM | TGI (HS 578T): 54.80 µM | CC50 (HS 578T): > 100 µM | TGI (HOP-62): 51.60 µM | CC50 (OVCAR-4): > 100 µM | TGI (OVCAR-4): >100 µM | CC50 (EKVX): > 100 µM | TGI (EKVX): 33.10 µM | TGI (HCT-15): 63.20 µM | TGI (NCI-H522): 40.30 µM | CC50 (IGROVI): > 100 µM | TGI (IGROVI): 63.30 µM | CC50 (SW-620): 59.9 µM | TGI (SW-620): 27.70 µM | TGI (NCI-H322M): >100 µM | TGI (SF-539): 28.50 µM | CC50 (SF-295): > 100 µM | TGI (SF-295): 26.00 µM | TGI (SK-MEL-5): 13.90 µM | CC50 (SNB-19): > 100 µM | TGI (SNB-19): >100 µM | TGI (A498): 24.20 µM | CC50 (A498): 50.1 µM | CC50 (M14): 51.6 µM | TGI (M14): 26.30 µM | TGI (OVCAR-3): 23.20 µM | CC50 (K-562): > 100 µM | TGI (K-562): >100 µM | CC50 (RPMI-8226): 97.3 µM | TGI (RPMI-8226): 21.80 µM | CC50 (KM12): 50.1 µM | TGI (KM12): 25.10 µM | inhibitory action over ABL kinase function (ABL kinase): without affecting ABL subfamily members | TGI (HCC-2998): 60.90 µM | TGI (UACC-62): 25.90 µM | TGI (HL-6O(TB)): 41.80 µM | CC50 (MDA-MB-435): 91.4 µM | TGI (MDA-MB-435): 27.50 µM | TGI (MCF7): 58.20 µM | TGI (MDA-MB-231/ATCC): 38.10 µM | TGI (SF-268): 57.20 µM | CC50 (OVCAR-5): > 100 µM | TGI (OVCAR-5): 69.80 µM | TGI (HCT-116): 13.20 µM | CC50 (TK-10): > 100 µM | TGI (TK-10): 60.80 µM

O=C(c1cccc(Nc2ncnc3ccccc23)c1)N1CCN(c2ncc(Cc3ccccc3)cn2)CC1 [Compound 16, (4-(5-benzylpyrimidin-2-yl)piperazin-1-yl)(3-(quinazolin-4-ylamino)phenyl)methanone]
TGI (HT29): 9.33 µM | CC50 (HT29): > 100 µM | GI50 (NCI-60 cell line panel; Homo sapiens): 1.05 µM | Mean TGI (NCI-60 cell line panel): 3.24 µM | TGI (HS 578T): 7.41 µM | CC50 (HS 578T): > 100 µM | TGI (HOP-62): 3.47 µM | CC50 (OVCAR-4): 7.59 µM | TGI (OVCAR-4): 1.95 µM | CC50 (EKVX): > 100 µM | TGI (EKVX): 4.90 µM | TGI (HCT-15): 3.55 µM | TGI (NCI-H522): 2.09 µM | CC50 (IGROVI): 5.01 µM | TGI (IGROVI): 1.82 µM | CC50 (SW-620): > 100 µM | TGI (SW-620): 4.27 µM | TGI (NCI-H322M): 4.79 µM | TGI (SF-539): 4.90 µM | CC50 (SF-295): > 100 µM | TGI (SF-295): 2.24 µM | TGI (SK-MEL-5): 1.20 µM | CC50 (SNB-19): > 100 µM | TGI (SNB-19): 8.91 µM | TGI (A498): 5.37 µM | CC50 (A498): > 100 µM | CC50 (M14): 4.68 µM | TGI (M14): 2.14 µM | TGI (OVCAR-3): 8.13 µM | CC50 (K-562): > 100 µM | TGI (K-562): 2.23 µM | CC50 (RPMI-8226): 3.89 µM | TGI (RPMI-8226): 0.60 µM | CC50 (KM12): 6.61 µM | TGI (KM12): 2.40 µM | inhibitory action over ABL kinase function (ABL kinase): weak inhibitory action | TGI (HCC-2998): 3.98 µM | TGI (UACC-62): 1.86 µM | TGI (HL-6O(TB)): 1.54 µM | CC50 (MDA-MB-435): 4.57 µM | TGI (MDA-MB-435): 2.14 µM | TGI (MCF7): 2.29 µM | TGI (MDA-MB-231/ATCC): 2.95 µM | TGI (SF-268): >100 µM | CC50 (OVCAR-5): > 100 µM | TGI (OVCAR-5): 5.75 µM | TGI (HCT-116): 3.55 µM | CC50 (TK-10): 39.8 µM | TGI (TK-10): 6.17 µM
